Assay results reported in paper PMC6273037, “Synthesis, Structure and Cytotoxic Activity of Mono- and Dialkoxy Derivatives of 5,8-Quinolinedione” (Molecules, 2016).
Read-outs that look alike come from different tables or passages of the source.

How the values were obtained:
[1] = test system: MDA-MB-231 (human adenocarcinoma, breast cancer); experiment: WST-1 antiproliferative assay, breast cancer MDA-MB-231; type: cell-based; conditions: for IC50: WST-1 test, incubation time 72 h, read-out: Human Cell Line/IC50 ± SD MDA-MB-231; for selectivity index (SI): breast cancer (MDA-MB-231) cell line
Experimental: (§1) As a reference, the cytotoxic agent cisplatin was applied.
(§2) The synthesized compounds were tested against tumor cells SNB-19 (human glioblastoma, DSMZ-German Collection of Microorganisms and Cell Cultures, Braunschweig, Germany), MDA-MB-231 (human adenocarcinoma, breast cancer; ATCC), C-32 (human melanoma; ATCC) and nontumor cells HFF-1 (normal human fibroblasts derived from foreskin, ATCC). The cultured cells were kept at 37 °C and in 5% CO2. The cells were seeded (10^3 cells/well/[…] DMEM supplemented with FBS (Fetal Bovine Serum, Lonza) to a final concentration of 10% and streptomycin 10 mg/mL and penicillin 1000 IU/mL (Sigma), using 96-well plates (Corning).
(§3) The antiproliferative effect of the synthesized compounds was determined using the Cell Proliferation Reagent WST-1 assay (Roche Diagnostics, Mannheim, Germany). […] After an exposure to the tested compounds at concentration varying in the range 0.4–400 nM/mL, the cell viability was quantified by a cell proliferation assay. […] The cytotoxic activity of the tested compound was compared to the cisplatin (positive control). The experiments were repeated in triplicate for each concentration of the tested compound. The initial concentration of the tested compounds was 1 mg/mL DMSO. […] Calculations of the IC50 values were performed using the GraphPad Prism 6 (GraphPad Software, San Diego, CA, USA).

[2] = test system: SNB-19 (human glioblastoma); experiment: WST-1 antiproliferative assay, glioblastoma SNB-19; type: cell-based; conditions: WST-1 test, incubation time 72 h, read-out: Human Cell Line/IC50 ± SD SNB-19
Experimental: as §1, §2, §3

[3] = test system: HFF-1 (normal human fibroblasts); experiment: WST-1 antiproliferative assay, normal fibroblasts HFF-1; type: cell-based; conditions: WST-1 test, incubation time 72 h, Neg = Negative in the concentration used; for IC50: read-out: Human Cell Line/IC50 ± SD HFF-1
Experimental: as §1, §2, §3

[4] = test system: C-32 (human melanoma); experiment: WST-1 antiproliferative assay, melanoma C-32; type: cell-based; conditions: WST-1 test, incubation time 72 h, read-out: Human Cell Line/IC50 ± SD C-32
Experimental: as §1, §2, §3

Molecule | IC50 ([1]; Homo sapiens, MDA-MB-231) [µM] | selectivity index (SI) [1] | IC50 ([2]; Homo sapiens, SNB-19) [µM] | IC50 ([3]; Homo sapiens, HFF-1) [µM] | melting point [°C] | IC50 ([4]; Homo sapiens) [µM] | IC50 [1] [µM] | IC50 [2] [µM] | IC50 [3] [µM] | IC50 [4] [µM] | Human Cell Line/IC50 ± SD HFF-1 [3]
COC1=C(Cl)C(=O)c2cccnc2C1=O [Compound 2, 6-Chloro-7-methoxy-5,8-quinolinedione] | 1.5 ± 0.2 | 18.4 | 42.2 ± 0.1 | 27.6 ± 2.1 | 161 to 163 | 19.2 ± 2.1 | – | – | – | – | –
N.N.[Cl][Pt][Cl] [cisplatin, reference compound] | – | – | – | – | – | – | 25.5 ± 0.2 | 18.9 ± 0.4 | 9.1 ± 1.8 | 16.4 ± 1.2 | –
O=C1C(Cl)=C(OC2CCCCC2)C(=O)c2ncccc21 [Compound 8, 6-Chloro-7-cyclohexyloxy-5,8-quinolinedione] | 3.5 ± 0.3 | – | 1.8 ± 0.1 | 13.9 ± 3 | 123 to 124 | 1.4 ± 0.1 | – | – | – | – | –
COC1=C(OC)C(=O)c2ncccc2C1=O [Compound 10, 6,7-Dimethoxy-5,8-quinolinedione] | – | – | – | – | 132 to 133 | – | – | – | – | – | –
C=CCOC1=C(Cl)C(=O)c2cccnc2C1=O [Compound 5, 6-Chloro-7-(2-propenoxy)-5,8-quinolinedione] | 17.2 ± 2.8 | – | 0.3 ± 0.01 | – | 89 to 90 | 0.28 ± 0.09 | – | – | – | – | Neg
O=C1C(OCCCl)=C(OCCCl)C(=O)c2ncccc21 [Compound 14, 6,7-di(2-Chloroethoxy)-5,8-quinolinedione] | 10.9 ± 1.4 | – | 3.5 ± 0.3 | 1.9 ± 0.2 | 189 to 191 | 12.1 ± 0.2 | – | – | – | – | –
O=C1C(OC2CCCCC2)=C(OC2CCCCC2)C(=O)c2ncccc21 [Compound 17, 6,7-Dicyclohexloxy-5,8-quinolinedione] | 13.8 ± 0.1 | – | 1.7 ± 0.3 | – | – | 1.4 ± 0.1 | – | – | – | – | Neg
O=C1C(OCC(F)(F)F)=C(OCC(F)(F)F)C(=O)c2ncccc21 [Compound 15, 6,7-di(2,2,2-Trifluoroethoxy)-5,8-quinolinedione] | 2.7 ± 0.1 | 4.6 | 14.9 ± 0.7 | 12.4 ± 1.2 | 110 to 111 | 10.9 ± 1.3 | – | – | – | – | –
N#CCCOC1=C(Cl)C(=O)c2cccnc2C1=O [Compound 7, 6-Chloro-7-(2-cyanoethoxy)-5,8-quinolinedione] | 164 ± 3.9 | – | 58.3 ± 2.8 | 2.5 ± 0.4 | 177 to 179 | 119 ± 4.3 | – | – | – | – | –
C=CCOC1=C(OCC=C)C(=O)c2ncccc2C1=O [Compound 13, 6,7-di(2-Propenyloxy)-5,8-quinolinedione] | 12.6 ± 2.7 | – | 0.2 ± 0.01 | – | 135 to 136 | 1.5 ± 0.01 | – | – | – | – | Neg
CCCOC1=C(OCCC)C(=O)c2ncccc2C1=O [Compound 12, 6,7-Dipropoxy-5,8-quinolinedione] | 3 ± 0.3 | – | 0.7 ± 0.02 | – | 133 to 135 | 1.1 ± 0.1 | – | – | – | – | Neg
O=C1C(Cl)=C(OCCCl)C(=O)c2ncccc21 [Compound 6, 6-Chloro-7-(2-chloroethoxy)-5,8-quinolinedione] | 17 ± 3 | – | 18.3 ± 1.4 | 15.8 ± 1.2 | 114 to 116 | 22.8 ± 2.5 | – | – | – | – | –
CCOC1=C(Cl)C(=O)c2cccnc2C1=O [Compound 3, 6-Chloro-7-ethoxy-5,8-quinolinedione] | 24 ± 2.8 | – | 10.3 ± 2.4 | 1.3 ± 0.5 | 112 to 114 | 30.7 ± 1.1 | – | – | – | – | –
6-Chloro-7-(1-methylbenzyloxy)-5,8-quinolinedione [Compound 9] | – | – | – | – | – | – | 271 ± 9.8 | 2.3 ± 0.5 | 2 ± 0.3 | 0.81 ± 0.01 | –
CCCOC1=C(Cl)C(=O)c2cccnc2C1=O [Compound 4, 6-Chloro-7-propoxy-5,8-quinolinedione] | 22.4 ± 2.7 | – | 0.36 ± 0.03 | – | 121 to 122 | 0.2 ± 0.01 | – | – | – | – | Neg
CCOC1=C(OCC)C(=O)c2ncccc2C1=O [Compound 11, 6,7-Diethoxy-5,8-quinolinedione] | 18.6 ± 2 | – | 2.1 ± 0.1 | – | 69 to 70 | 17.6 ± 1.6 | – | – | – | – | Neg
N#CCCOC1=C(OCCC#N)C(=O)c2ncccc2C1=O [Compound 16, 6,7-di(2-Cyanoethoxy)-5,8-quinolinedione] | 111 ± 3.7 | – | 204 ± 14.3 | 18.2 ± 2.6 | 45 to 47 | 134 ± 10.7 | – | – | – | – | –
